Source: patent publication US20170009228A1, “BIOLOGICAL MATERIALS AND THERAPEUTIC USES THEREOF” (IMPERIAL INNOVATIONS LIMITED, priority 2014, published 2017)
Where no end group is shown, it is not given here. [ ]: non-standard residue; d: D form. Cit = NC(=O)NCCC[C@H](N)C(=O)O

Legend:
[1] = tested on: RA synovial membrane cultures; assay: Spontaneous cytokine synthesis in RA synovial membrane cultures incubated with FBG peptides; assay type: cell-based, human; settings: for inhibition of cytokine synthesis at the highest concentrations / TNF and IL8 synthesis: RA synovial membrane cultures; for inhibition of cytokine synthesis at the highest concentrations: dose dependent, 25, 100 or 250 μM peptide, 24 h; for TNF and IL8 synthesis: spontaneous cytokine synthesis
Protocol: RA membrane cells (representing a mixed population of all synovial cell types) were isolated from synovial membranes obtained from patients undergoing joint replacement surgery (Brennan (1989)). Synovial membrane tissue was digested in RPMI 1640 (GIBCO) containing 5% fetal calf serum (FCS) (GIBCO), 5 mg/ml collagenase type IV (Sigma) and 0 15 mg/ml DNAse type I (Sigma) and incubated at 37° C. for 2 h.
Immediately after isolation, RA membrane cells were cultured at 1×10^5 cells/well in RPMI 1640 containing 10% (v/v) FBS and 100 U/ml penicillin/streptomycin in 96-well tissue culture plates. Cells were incubated for 24 h at 37° C. with no addition, buffer control (PBS, 1% BSA, 0.01% NaN3), or with 25 μm, 100 μM or 250 μM of each FBG spanning peptide.
(§1) Supernatants were examined for the presence of the cytokines TNF-α, IL-6, and IL-8 by enzyme-linked immunosorbent assay (ELISA) according to the manufacturer's instructions (R&D systems). Absorbance was read on a spectrophotometric ELISA plate reader (Labsystems Multiscan Biochromic, Vantaa, Finland) and analyzed using the Ascent software program (Thermo Labsystems, Altrincham, UK).

RA sera = assay: IgG response to cyclic citrullinated FBG peptides in RA and control sera; assay type: binding, human; settings: 20 RA and 20 control sera
Excerpt: (A) Peptides with sequences corresponding to the amino acid sequence of FBG were designed, with the addition of cysteine residues at the amino and carboxy termini and the exchange of arginine for citrulline residues at positions identified by LC-MS/MS. (B) IgG response to citrullinated FBG peptides and arginine containing control peptides in patients with rheumatoid arthritis (RA; n=20) and healthy controls (n=20). The 95th percentile of the control sera was used to determine positivity (dashed line). Mann-Whitney U test was used to calculate p values for differences between groups (n.s.=no significant difference, *=p<0.05 and **=p<0.01, ***=p<0.001, […]).
With reference to FIG. 31, the antibody response in 20 RA and 20 control sera to 6 cyclic FBG peptides, encompassing citrulline residues was evaluated.

[2] = tested on: primary human macrophages; assay: Stimulation of primary human macrophages with each FBG peptide; assay type: cell-based; settings: 1 or 20 μM FBG peptide, 24 h
Protocol: (§2) After incubation the tissue was pipetted through a nylon mesh into a sterile beaker. The cells were then washed three times in complete medium (RPMI 1640 supplemented with 10% FCS). RA synovial fibroblasts were isolated from the mixed population of RA membrane cells by selection in DMEM (Bio-Whittaker) supplemented with 10% FBS, […], 100 U/ml penicillin, and streptomycin. Human monocytes were isolated from peripheral blood (London Blood Bank) and macrophages were derived from monocytes after differentiation for 4 days with 100 ng/ml of M-CSF.
(§3) Macrophages were cultured at 1×10^5 cells/well in RPMI 1640 containing 5% (v/v) FBS and 100 U/ml penicillin/streptomycin in 96-well tissue culture plates for 24 h before stimulation. Cells were incubated for 24 h at 37° C. with no addition, 1.0 μM FBG, 1 ng/ml LPS or 1 or 20 μM FBG peptide. Where stated, cells were pre-incubated with 20 μM FBG peptides for 15 min.
as §1

human macrophages = assay: FBG or LPS induced cytokine synthesis in human macrophages pre-incubated with FBG peptides; assay type: cell-based; settings: pre-incubation with 20 μM peptide, 24 h; for FBG mediated cytokine synthesis: then 1 μM whole FBG
Protocol: as §2, §3, §1

[3] = tested on: primary human macrophages; assay: TNF synthesis in primary human macrophages stimulated with native or citrullinated FBG; assay type: cell-based; settings: 0.1-1.0 μM, 24 h
Protocol: Equal volumes of protein and 2× citrullination buffer (200 mM Tris HCl, pH 7.4, 20 mM CaCl2, 10 mM DTT) were mixed. 8.75 U rabbit skeletal PAD (product number P1584 from Sigma) per mg substrate protein was added and incubated for 3 hours at 37° C. or 2 hours at 50° C. Citrullination was confirmed by size shift visualized by coomassie blue staining of SDS PAGE or by AMC detection.
Primary human macrophages were isolated as described above and cultured at 1×10^5 cells/well in RPMI 1640 containing 5% (v/v) FBS and 100 U/ml penicillin/streptomycin in 96-well tissue culture plates for 24 h before stimulation. Cells were incubated for 24 h at 37° C. with no addition (UN), different concentrations (uM) of native FBG (nFBG) or cit FBG (cFBG) or citrullination buffer alone (CIT) or cit buffer plus PAD enzyme (CIT+PAD).
as §1, with “TNF-α” for “TNF-α, IL-6, and IL-8”

[4] = tested on: human dermal fibroblasts (HDF); assay: Cell adhesion to coated FBG, human dermal fibroblasts; assay type: cell-based; settings: coated wells, 45 minutes, crystal violet
Protocol: (§4) (A) The sequence identified to bind integrin ≢vβ3 is shown in white (Yokoyama et al., 2000). Within this sequence two Arginines (shown in black) were identified to be citrullinated. (B) Wells of a 96 well plate were coated with different concentrations of FBG, citrullinated FBG (cFBG), FBG incubated in buffer without Calcium (FBG —Ca^2+), or FBG incubated without PAD (FBG -PAD). As a positive control wells were coated with Fibronectin (FN) (1 ug/ml), and coating with BSA (10 mg/ml) served as negative control. Plates were incubated with human dermal fibroblasts (HDF) or synovial fibroblasts from RA patients (RAF) for 45 minutes and adhesion was measured by determining absorbance of attached cells after staining with crystal violet (0.1%). Data are shown as the mean of at least four independent experiments+s.e.m., *=p<0.05, **=p<0.01.

[5] = tested on: synovial fibroblasts from RA patients (RAF); assay: Cell adhesion to coated FBG, RA synovial fibroblasts; assay type: cell-based, human; settings: coated wells, 45 minutes, crystal violet
Protocol: as §4

MyD88 = assay: Cytokine synthesis in embryonic fibroblasts from MyD88 deficient mice; assay type: cell-based; settings: for cytokine synthesis: MEFs from MyD88 deficient mice, 24 h; for responsiveness after re-transfection of wild type MyD88: MyD88 deficient MEFs, data not shown
Protocol: (§5) MEFs express high levels of mRNA of all 9 murine TLRs and are specifically and highly responsive to TLR ligand activation. […] MEFs were isolated from d13 embryos harvested from age-matched, pregnant female wild type, TLR2, TLR4 and null mice (as described in Todaro (1963)). Fibroblasts were cultured at 2×10^4 cells/well in DMEM containing 10% (v/v) FBS and 100 U/ml penicillin/streptomycin in 96-well tissue culture plates for 24 hours before stimulation.
(§6) Cells were incubated for 24 hours at 37° C. with the indicated doses of tenascin-C and recombinant tenascin-C fragments (1.0 μM-1.0 nM). Cells were also stimulated where indicated with LPS (1 ng/ml for human macrophages, 10 ng/ml for human fibroblasts, RA membrane cells and HEKs, 100 ng/ml for MEFS and BMDMs and 10 ng/ml for HEKS), PAM3 (10 ng/ml for human macrophages, human fibroblasts, and HEKs, 100 ng/ml for MEFs and BMDMs), murine IL-1 (5 ng/ml for MEFS) and murine TNF-α (100 ng/ml for MEFS). Unless specifically stated otherwise rough LPS was used for in vitro studies.
as §1, with “were subsequently” for “were”, “instructions.” for “instructions (R&D systems).”

TLR4 = assay: Cytokine synthesis in embryonic fibroblasts or macrophages from TLR4 deficient mice; assay type: cell-based
Protocol: as §5
(§7) BMDMs were derived by aspirating the femurs of age matched female wild type, TLR2 and TLR4 null mice as described in Butler (1999)) and culturing the cells for 7 days in DMEM, 20% (v/v) FBS, 10 ml/L (v/v) antibiotic-antimycotic solution PSA, 50 μM β-Mercaptoethanol and 10 ng/ml M-CSF. Macrophages were then cultured at 1×10^5 cells/well in DMEM, 20% (v/v) FBS, 10 ml/L (v/v) antibiotic-antimycotic solution PSA, 50 μM β-Mercaptoethanol in 96-well tissue culture plates for 24 hours before stimulation.
as §6
as §1, with “were subsequently” for “were”, “instructions.” for “instructions (R&D systems).”

TLR2 = assay: Cytokine synthesis in embryonic fibroblasts or macrophages from TLR2 deficient mice; assay type: cell-based
Protocol: as §5, §7, §6
as §1, with “were subsequently” for “were”, “instructions.” for “instructions (R&D systems).”

## WIVFLRRKNGRENFYQNWKAYAAGFGDRRE [Peptide 3]
[1]
  inhibition of cytokine synthesis at the highest concentrations: 95%
[1]; 24 h with peptide
  TNF and IL8 synthesis: inhibited

## CEMKLRPSNFRNLEG-Cit-Cit-KRC (CEMKLRPSNFRNLEG[Cit][Cit]KRC; not fully specified (bridges); printed as CEMKLRPSNFRNLEG-Cit-Cit-KRC; also: cyclic, bridge not given here) [CIT219/220]
RA sera
  antibody response in RA sera and control sera: detected in RA sera but not control sera

## TIGLLYPFPKDCSQAMLNGDTTSGLYTIYL [Peptide 1]
[2]
  cytokine synthesis: induced cytokine synthesis in a dose dependent manner

## ELRVDLRDHGETAFAVYDKFSVGDAKTRYK [Peptide 5]
Human macrophages
  FBG mediated cytokine synthesis: specifically blocked
[1]; RA membrane cells, 24 h with peptide
  TNF synthesis: no effect
[1]; RA membrane cells, dose dependent
  maximal inhibition of IL8 synthesis: 81%
[2]
  cytokine synthesis: induced cytokine synthesis in a dose dependent manner

## CVFLRRKNG-Cit-ENFYQNWC (CVFLRRKNG[Cit]ENFYQNWC; not fully specified (bridges); printed as CVFLRRKNG-Cit-ENFYQNWC; also: cyclic, bridge not given here) [CIT55]
RA sera
  antibody response in RA sera and control sera: detected in RA sera but not control sera

## WYRNCHRVNLMGRYGDNNHSQGVNWFHWKG [Peptide 8]
Human macrophages; then 1 ng/ml LPS
  cytokine synthesis in response to LPS: blocked
Human macrophages
  FBG mediated cytokine synthesis: blocked
[1]
  inhibition of cytokine synthesis at the highest concentrations: 56%
[1]; 24 h with peptide
  TNF and IL8 synthesis: inhibited

## KTRYKLKVEGYSGTAGDSMAYHNGRSFST [Peptide 6]
[2]
  cytokine synthesis: induced cytokine synthesis in a dose dependent manner

## cFBG: FBG domain of tenascin-C citrullinated in vitro with PAD
[3]
  cytokine (TNFα) synthesis compared with native FBG: better at stimulating cytokine (e.g. TNFα) synthesis
[4]
  adhesion of human dermal fibroblasts (HDF): reduces adhesion
[5]
  adhesion of synovial fibroblasts from RA joints (RAF): reduces adhesion

## CEMKL-Cit-PSNF-Cit-NLEGRRKRC (CEMKL[Cit]PSNF[Cit]NLEGRRKRC; not fully specified (bridges); printed as CEMKL-Cit-PSNF-Cit-NLEGRRKRC; also: cyclic, bridge not given here) [CIT209/214]
RA sera
  antibody response in RA sera and control sera: detected in RA sera but not control sera

## TNF-α [reference compound]
MyD88
  cytokine synthesis: unaffected

## Pam3Cys-Ser-Lys4 [reference compound]
TLR4
  cytokine synthesis: did respond
TLR2
  cytokine synthesis: unresponsive
MyD88
  cytokine synthesis: abolished
  responsiveness after re-transfection of wild type MyD88: restored the responsiveness

B1: IL-1: murine IL-1 used to stimulate MEFs (protein, UniProt P10749 118-269, looked up)
Interleukin-1 beta: VPIRQLHYRLRDEQQKSLVLSDPYELKALHLNGQNINQQVIFSMSFVQGEPSNDKIPVALGLKGKNLYLSCVMKDGTPTLQLESVDPKQYPKKKMEKRFVFNKIEVKSKVEFESAEFPNWYISTSQAEHKPVFLGNNSGQDIIDFTMESVSS
TLR4
  cytokine synthesis: did respond
TLR2
  cytokine synthesis: responsive
MyD88
  cytokine synthesis: abolished
  responsiveness after re-transfection of wild type MyD88: restored the responsiveness
